# Publication PMC7561186, “Rational design of balanced dual-targeting antibiotics with limited resistance” (PLoS Biology, 2020)
# Where two headings read alike, the source gives them in different places.
# Tested on: S. aureus clinical isolates
# Assay: microbe, parasite or virus in culture
# Type: cell-based
smiles,measurement,setting,value
CC(=O)NC[C@H]1CN(c2ccc(N3CCOCC3)c(F)c2)C(=O)O1 [Linezolid],MIC,"S. aureus ATCC 29213, MSSA / VSSA, test date 2018-10-25 (three repeat lines)",4 µg/mL
same,MIC,"Staphylococcus aureus, ATCC 29213 / MSSA, S. aureus ATCC 29213, MSSA / VSSA, test date 2018-10-25 (three repeat lines), read-out: MIC",2 µg/mL
same,MIC,"Staphylococcus aureus, ATCC 29213 / MSSA, S. aureus ATCC 29213, MSSA / VSSA, test date 2018-11-07, read-out: MIC",2 µg/mL
same,MIC,"Staphylococcus aureus, MRSA / NRS 3 / VISA, S. aureus IHMA 1308243, NRS3, MRSA / VISA, read-out: MIC",1 µg/mL
same,MIC,"Staphylococcus aureus, MRSA / NRS 4 / VISA, S. aureus IHMA 649380, NRS4, MRSA / VISA, read-out: MIC",1 µg/mL
same,MIC,"Staphylococcus aureus, MRSA / NRS 18 / VISA, S. aureus IHMA 649386, NRS18, MRSA / VISA, read-out: MIC",2 µg/mL
same,MIC,"Staphylococcus aureus, MRSA / NRS 19 / VISA, S. aureus IHMA 649387, NRS19, MRSA / VISA, read-out: MIC",0.5 µg/mL
same,MIC,"Staphylococcus aureus, MRSA / NRS 21 / VISA, S. aureus IHMA 649388, NRS21, MRSA / VISA, read-out: MIC",1 µg/mL
same,MIC,"Staphylococcus aureus, MRSA / NRS 22 / USA600 / VISA, S. aureus IHMA 649389, NRS22, MRSA / VISA, USA600, read-out: MIC",1 µg/mL
same,MIC,"Staphylococcus aureus, MRSA / NRS 23 / VISA, S. aureus IHMA 649390, NRS23, MRSA / VISA, read-out: MIC",2 µg/mL
same,MIC,"Staphylococcus aureus, MRSA / NRS 24 / VISA, S. aureus IHMA 649391, NRS24, MRSA / VISA, read-out: MIC",1 µg/mL
same,MIC,"Staphylococcus aureus, MRSA / NRS 26, S. aureus IHMA 649392, NRS26, MRSA / VSSA, read-out: MIC",1 µg/mL
same,MIC,"Staphylococcus aureus, MRSA / NRS 27 / VISA, S. aureus IHMA 1308248, NRS27, MRSA / VISA, read-out: MIC",2 µg/mL
same,MIC,"Staphylococcus aureus, MRSA / NRS 29 / VISA, S. aureus IHMA 1308250, NRS29, MRSA / VISA, read-out: MIC",1 µg/mL
same,MIC,"Staphylococcus aureus, MRSA / NRS 37 / VISA, S. aureus IHMA 1308251, NRS37, MRSA / VISA, read-out: MIC",1 µg/mL
same,MIC,"Staphylococcus aureus, MRSA / NRS 54, S. aureus IHMA 1308253, NRS54, MRSA / VSSA* (*Expected VAN intermediate, confirmed VAN susceptible twice), test date 2018-11-07, read-out: MIC",1 µg/mL
same,MIC,"Staphylococcus aureus, MRSA / NRS 56 / VISA, S. aureus IHMA 1308254, NRS56, MRSA / VISA, read-out: MIC",1 µg/mL
same,MIC,"Staphylococcus aureus, MRSA / USA100 / VRSA, S. aureus IHMA 672230, VRS1, MRSA / VRSA, USA100, read-out: MIC",1 µg/mL
same,MIC,"Staphylococcus aureus, MRSA / USA100 / VRSA, S. aureus IHMA 672231, VRS2, MRSA / VRSA, USA100, read-out: MIC",1 µg/mL
same,MIC,"Staphylococcus aureus, MRSA / USA100 / VRSA, S. aureus IHMA 672234, VRS4, MRSA / VRSA, USA100, read-out: MIC",2 µg/mL
same,MIC,"Staphylococcus aureus, MRSA / USA100 / VRSA, S. aureus IHMA 672235, VRS5, MRSA / VRSA, USA100, read-out: MIC",2 µg/mL
same,MIC,"Staphylococcus aureus, MRSA / USA100 / VRSA, S. aureus IHMA 672237, VRS7, MRSA / VRSA, USA100, read-out: MIC",2 µg/mL
same,MIC,"Staphylococcus aureus, MRSA / USA100 / VRSA, S. aureus IHMA 672238, VRS8, MRSA / VRSA, USA100, read-out: MIC",1 µg/mL
same,MIC,"Staphylococcus aureus, MRSA / USA100 / VRSA, S. aureus IHMA 672239, VRS9, MRSA / VRSA, USA100, read-out: MIC",1 µg/mL
same,MIC,"Staphylococcus aureus, MRSA / USA100 / VRSA, S. aureus IHMA 1308256, VRS10, MRSA / VRSA, USA100, read-out: MIC",4 µg/mL
same,MIC,"Staphylococcus aureus, MRSA / USA100 / VRSA, S. aureus IHMA 1308258, VRS11b, MRSA / VRSA, USA100, read-out: MIC",1 µg/mL
same,MIC,"Staphylococcus aureus, MRSA / USA800 / VRSA, S. aureus IHMA 672233, VRS3b, MRSA / VRSA, USA800, read-out: MIC",1 µg/mL
same,MIC,"Staphylococcus aureus, MRSA, S. aureus IHMA 1569509, MRSA / VSSA, read-out: MIC",4 µg/mL
same,MIC,"Staphylococcus aureus, MRSA, S. aureus IHMA 1575268, MRSA / VSSA, read-out: MIC",2 µg/mL
same,MIC,"Staphylococcus aureus, MRSA, S. aureus IHMA 1575629, MRSA / VSSA, read-out: MIC",4 µg/mL
same,MIC,"Staphylococcus aureus, MRSA, S. aureus IHMA 1577820, MRSA / VSSA, read-out: MIC",2 µg/mL
same,MIC,"Staphylococcus aureus, MRSA, S. aureus IHMA 1580300, MRSA / VSSA, read-out: MIC",0.5 µg/mL
same,MIC,"Staphylococcus aureus, MRSA, S. aureus IHMA 1580940, MRSA / VSSA, read-out: MIC",2 µg/mL
same,MIC,"Staphylococcus aureus, MRSA, S. aureus IHMA 1582100, MRSA / VSSA, read-out: MIC",2 µg/mL
same,MIC,"Staphylococcus aureus, MRSA, S. aureus IHMA 1583795, MRSA / VSSA, read-out: MIC",1 µg/mL
same,MIC,"Staphylococcus aureus, MRSA, S. aureus IHMA 1584223, MRSA / VSSA, read-out: MIC",4 µg/mL
same,MIC,"Staphylococcus aureus, MRSA, S. aureus IHMA 1585316, MRSA / VSSA, read-out: MIC",2 µg/mL
same,MIC,"Staphylococcus aureus, MRSA, S. aureus IHMA 1586780, MRSA / VSSA, read-out: MIC",1 µg/mL
same,MIC,"Staphylococcus aureus, MRSA, S. aureus IHMA 1587322, MRSA / VSSA, read-out: MIC",2 µg/mL
same,MIC,"Staphylococcus aureus, MRSA, S. aureus IHMA 1588127, MRSA / VSSA, read-out: MIC",1 µg/mL
same,MIC,"Staphylococcus aureus, MRSA, S. aureus IHMA 1591462, MRSA / VSSA, read-out: MIC",4 µg/mL
same,MIC,"Staphylococcus aureus, MRSA, S. aureus IHMA 1592755, MRSA / VSSA, read-out: MIC",2 µg/mL
same,MIC,"Staphylococcus aureus, MRSA, S. aureus IHMA 1592776, MRSA / VSSA, read-out: MIC",2 µg/mL
same,MIC,"Staphylococcus aureus, MRSA, S. aureus IHMA 1597106, MRSA / VSSA, read-out: MIC",1 µg/mL
same,MIC,"Staphylococcus aureus, MRSA, S. aureus IHMA 1602095, MRSA / VSSA, read-out: MIC",4 µg/mL
same,MIC,"Staphylococcus aureus, MRSA, S. aureus IHMA 1611170, MRSA / VSSA, read-out: MIC",2 µg/mL
same,MIC,"Staphylococcus aureus, MRSA, S. aureus IHMA 1611612, MRSA / VSSA, read-out: MIC",4 µg/mL
same,MIC,"Staphylococcus aureus, MRSA, S. aureus IHMA 1612228, MRSA / VSSA, read-out: MIC",2 µg/mL
same,MIC,"Staphylococcus aureus, MRSA, S. aureus IHMA 1620441, MRSA / VSSA, read-out: MIC",1 µg/mL
